# How the values were obtained:
# Assay type in all cases: cell-based
# USP7 = molecular target: T1, USP7 (Homo sapiens, UniProt Q93009); assay: DUB activity of USP7 immunoprecipitated from pulse-treated Jurkat cells (Ub-EKL assay); conditions: Jurkat cells pulse treated with 10 μM-0.1 μM for 2 hours, FIG. 4A-4B
# T1 construct: followed by DUB activity measurement of immunoprecipitated USP7; endogenous in cells; host or cells: Jurkat cells
# Description: Jurkat cells were pulse treated with doses ranging from 10 μM-0.1 μM of compound 1 or DMSO as vehicle control for 2 hours followed by DUB activity measurement of immunoprecipitated USP7 (FIG. 4A) as well as total cell lysate (FIG. 4B) using Ub-EKL assay (U.S. Pat. No. 8,680,139). A portion of the immunoprecipitated USP7 is separated on 10% SDS-PAGE and immunoblotted with anti-USP7 antibody to detect the level of USP7 protein (shown at the top of graphs in FIG. 4A).
# Murine Tregs = assay: Treg suppression assay with CFSE labeled T effector cells (FACS); conditions: Murine Tregs pre-treated for 2 hours, washed, incubated with CFSE labeled T effector cells for 3 days; FIG. 6
# Description: Murine Tregs were pre-treated with compound 1 for 2 hours, washed and incubated with carboxyfluorescein succinimidyl ester (CFSE) labeled T effector cells at varying concentrations for 3 days. T effector cell proliferation was monitored using FACS analysis. Percentage proliferation is plotted using Graphpad prism.
# DNMT1, UHRF1 and HDM2 = assay: Immunoblot of USP7 oncogenic substrate levels in Jurkat cells; conditions: 20 μg total cell lysate, FIG. 5
# Description: FIG. 5 graphically illustrates a decrease in USP7 oncogenic substrates DNMT1, UHRF1 and HDM2 levels in Jurkat cells treated with the USP7i compound 1. 20 μg total cell lysates from each sample was separated on 10% SDS-PAGE and immunoblotted with antibodies against DNMT1, UHRF1, HDM2 and Actin (loading control).
# T1 sequence (Q93009 whole entry): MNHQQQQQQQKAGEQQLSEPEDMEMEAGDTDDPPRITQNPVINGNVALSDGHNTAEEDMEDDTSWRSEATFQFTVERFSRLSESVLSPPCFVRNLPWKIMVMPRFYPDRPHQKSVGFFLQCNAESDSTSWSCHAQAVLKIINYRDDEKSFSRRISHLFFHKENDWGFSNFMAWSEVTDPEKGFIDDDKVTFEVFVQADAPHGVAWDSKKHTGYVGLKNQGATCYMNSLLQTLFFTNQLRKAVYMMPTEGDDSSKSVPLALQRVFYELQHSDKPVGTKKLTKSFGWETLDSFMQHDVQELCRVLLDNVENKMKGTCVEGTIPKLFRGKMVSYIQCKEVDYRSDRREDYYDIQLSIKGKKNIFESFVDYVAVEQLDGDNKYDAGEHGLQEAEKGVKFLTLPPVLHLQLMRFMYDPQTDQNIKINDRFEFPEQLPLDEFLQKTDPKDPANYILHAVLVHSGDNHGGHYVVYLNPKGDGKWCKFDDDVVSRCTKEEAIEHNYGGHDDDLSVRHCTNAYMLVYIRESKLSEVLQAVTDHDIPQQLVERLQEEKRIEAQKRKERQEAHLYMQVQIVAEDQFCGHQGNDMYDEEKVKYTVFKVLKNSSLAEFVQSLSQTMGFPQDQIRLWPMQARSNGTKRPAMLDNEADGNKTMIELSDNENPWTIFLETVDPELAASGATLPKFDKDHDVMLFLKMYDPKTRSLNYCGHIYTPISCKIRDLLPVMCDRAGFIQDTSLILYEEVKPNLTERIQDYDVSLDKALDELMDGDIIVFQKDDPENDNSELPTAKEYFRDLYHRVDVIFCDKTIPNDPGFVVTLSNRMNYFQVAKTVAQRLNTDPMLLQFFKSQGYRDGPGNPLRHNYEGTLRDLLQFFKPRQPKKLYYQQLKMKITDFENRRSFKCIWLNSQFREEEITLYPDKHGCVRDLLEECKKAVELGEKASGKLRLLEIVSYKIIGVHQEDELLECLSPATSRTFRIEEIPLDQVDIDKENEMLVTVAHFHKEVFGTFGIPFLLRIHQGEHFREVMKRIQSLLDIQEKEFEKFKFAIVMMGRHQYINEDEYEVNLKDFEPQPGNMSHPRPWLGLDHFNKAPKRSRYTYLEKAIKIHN
structure (smiles),measurement,setting,value
"O=C(Nc1ccc2c(c1)S(=O)(=O)C=C2)c1nnc(Sc2c(Cl)cncc2Cl)s1 [compound 1, 5-((3,5-dichloropyridin-4-yl)thio)-N-(1,1-dioxido-2,3-benzo[b]thiophen-6-yl)-1,3,4-thiadiazole-2-carboxamide]",mode of USP7 inhibition (DUB activity of immunoprecipitated USP7 after pulse treatment),USP7,irreversible inhibitors
same,Treg functions (T effector cell proliferation),Murine Tregs,inhibition of Treg functions
same,"USP7 oncogenic substrates DNMT1, UHRF1 and HDM2 levels","DNMT1, UHRF1 and HDM2",decrease
